System: C. albicans 10231
Test: Skin conditioner impact on antimicrobial efficacy
Format: cell-based, Candida albicans
Conditions: skin conditioner added to prototype composition
From the text: FIG. 6 is a bar graph showing the effect on the antimicrobial efficacy (average log reduction of C. albicans 10231) for three prototype antimicrobial compositions sharing all the same ingredients but differing in the amount of added PEG-45 palm kernel glycerides (ranging from 0 to 1.0%) in comparison to a commercial antimicrobial soap (ECOLAB Equi-Soft™ soap).

PEG-45 palm kernel glycerides
impact on the efficacy: negative impact

From patent publication US10799433B2, “Foaming antimicrobial compositions” (S.C. Johnson & Son, Inc., priority 2016, dated 2020)
